Measured values as given in US20170253581A1, “SUBSTITUTED HETEROCYCLES AS c-MYC TARGETING AGENTS” (Northwestern University, priority 2016, published 2017).

Molecular target: Myc/Max binding to DNA (Homo sapiens, UniProt P01106)
Assay: Electrophoretic mobility shift assay (EMSA) of Myc/Max binding to DNA
Format: biochemical
Conditions: for remaining activity at 50 µM: 50 uM test compound, read-out: Bound DNA (%) (50uM); for remaining activity at 100 µM: read-out: Bound DNA (%) (100uM); for remaining activity at 200 µM: 200 uM test compound, read-out: Bound DNA (%) (200uM)
Procedure: We also tested our best hit compound Min9 (NUCC-0176234) and newly synthesized analogs for effects of these compounds on Myc/Max binding to DNA in electrophoretic mobility shift assays (EMSAs). (See FIG. 5a and FIG. 5b). We expected the active compounds to impair Myc/Max binding to DNA. Several strucutural analogs of Min9 were tested over multiple doses for inhibiting Myc-DNA binding and we observed a dose-dependent inhibition. (See FIG. 5c).
Additional compounds were synthesized and tested in the EMSA assay at concentrations of 200 μM, 100 μM, and 50 μM.

Chain of Myc/Max binding to DNA (P01106 whole entry): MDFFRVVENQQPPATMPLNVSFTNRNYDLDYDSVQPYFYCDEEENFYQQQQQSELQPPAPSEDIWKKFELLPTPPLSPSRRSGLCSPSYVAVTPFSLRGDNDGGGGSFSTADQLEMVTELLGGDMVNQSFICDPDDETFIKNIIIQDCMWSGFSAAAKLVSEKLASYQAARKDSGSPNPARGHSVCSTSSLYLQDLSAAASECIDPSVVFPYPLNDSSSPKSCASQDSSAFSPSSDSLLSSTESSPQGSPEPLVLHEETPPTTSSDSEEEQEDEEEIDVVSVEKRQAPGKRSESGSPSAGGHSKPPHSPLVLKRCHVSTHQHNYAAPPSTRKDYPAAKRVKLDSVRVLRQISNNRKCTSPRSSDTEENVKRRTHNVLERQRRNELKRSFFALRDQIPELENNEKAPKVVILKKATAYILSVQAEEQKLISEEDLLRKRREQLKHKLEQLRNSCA

| SMILES | remaining activity at 100 µM (EMSA, 100 uM test compound) [%] | further results |
| --- | --- | --- |
| Oc1cc(Nc2ccc(Cl)cc2)ccc1-c1cc(C(F)(F)F)[nH]n1 [compound 0200491] |  | remaining activity at 50 µM (EMSA): 73%; Bound DNA (%) (100uM) (EMSA, 100 uM test compound): 0% |
| Oc1cc(Nc2ccc(F)c(F)c2)ccc1-c1cc(C(F)(F)F)[nH]n1 [compound 0200559] | 39 | remaining activity at 50 µM (EMSA): 76% |
| Oc1cc(NCc2ccc(Cl)cc2)ccc1-c1cc(C(F)(F)F)[nH]n1 [compound 0200493] | 42 | remaining activity at 50 µM (EMSA): 92% |
| Oc1cc(Nc2ccc3c(c2)OCO3)ccc1-c1cc(C(F)(F)F)[nH]n1 [compound 0200561] | 59 | remaining activity at 50 µM (EMSA): 91% |
| CN1CCN(c2ccc(-c3cc(C(F)(F)F)[nH]n3)c(O)c2)CC1 [compound 0200567] | 115 | remaining activity at 50 µM (EMSA): 117% |
| Cn1nc(C(F)(F)F)cc1-c1ccc(OCc2ccc(Cl)cc2)cc1N [compound 0200745] | 105 |  |
| CCc1ccc(Oc2c(-c3ccc(OCc4ccc(Cl)c(Cl)c4)cc3O)nn(C)c2C(F)(F)F)cc1 [compound 0196354] | 82 |  |
| Cn1nc(-c2ccc(OCCN3CCOCC3)cc2O)c(Oc2ccccc2Cl)c1C(F)(F)F [compound 0196341] | 154 |  |
| COc1cccc(COc2ccc(-c3nn(C)cc3Oc3cc(C)ccc3C)c(O)c2)c1 [compound 0196289] | 136 |  |
| Cn1nc(C(F)(F)F)cc1-c1ccc(N)cn1 [compound 0200688] | 103 | remaining activity at 50 µM (EMSA): 102% |
| Cn1cc(Oc2ccccc2Cl)c(-c2ccc(OCc3ccc(Cl)cc3)cc2O)n1 [compound 0196305] | 3 | IC50: 39 µM |
| Cc1[nH]nc(-c2ccc(OCc3ccc(Cl)cc3)cc2O)c1Oc1ccccc1 [NUCC-0176253] |  | remaining activity at 200 µM (EMSA): 39% |
| c1ccc(COc2ccccc2-c2nn[nH]c2-c2ccccc2)cc1 [compound 0200722] | 104 |  |
| Cn1nc(-c2ccc(NCc3ccc(Cl)cc3)cc2O)cc1C(F)(F)F [compound 0200494] | 89 | remaining activity at 50 µM (EMSA): 99% |
| Oc1ccccc1-c1cc(C(F)(F)F)n[nH]1 [compound 0200574] | 107 |  |
| Cc1ccc(C)c(Oc2cn(C)nc2-c2ccc(OCCN3CCCCC3)cc2O)c1 [compound 0196299] | 138 |  |
| Cn1cc(-c2ccoc2)c(-c2ccc(OCc3ccc(Cl)cc3)cc2O)n1 [compound 0198324] | 80 |  |

| SMILES | remaining activity at 100 µM (EMSA, 100 uM test compound) [%] | further results |
| --- | --- | --- |
| Cc1ccc(C)c(Oc2cn(C)nc2-c2ccc(OCc3ccc(Cl)cc3)cc2O)c1 [compound 0196285] | 118 |  |
| Cc1cc(C)cc(-c2cn(C)nc2-c2ccc(OCc3ccc(Cl)cc3)cc2O)c1 [compound 0198353] | 104 |  |
| CCc1ccc(Oc2c(-c3ccc(OCc4ccc(OC)cc4)cc3O)n[nH]c2C(F)(F)F)cc1 [compound 0196359] | 57 |  |
| Cn1cc(C(F)(F)F)c(-c2ccc(NCc3ccc(Cl)cc3)cn2)n1 [compound 0200742] | 99 |  |
| Oc1cc(Nc2ccc(Cl)c(Cl)c2)ccc1-c1cc(C(F)(F)F)[nH]n1 [compound 0200721] | 4 | remaining activity at 50 µM (EMSA): 87% |
| CCc1c(-c2ccccc2)c(-c2ccc(OCc3ccc(Cl)cc3)cc2O)nn1C [compound 0198303] | 105 |  |
| CCc1ccc(Oc2c[nH]nc2-c2ccc(OCCc3ccc(F)cc3)cc2O)cc1 [NUCC-0176258] |  | remaining activity at 200 µM (EMSA): 17% |
| Cn1nc(C(F)(F)F)cc1-c1ccc(O)cn1 [compound 0200687] | 101 | remaining activity at 50 µM (EMSA): 100% |
| Cc1[nH]nc(-c2ccc(OCc3ccncc3)cc2O)c1Oc1ccccc1 [NUCC-0176252] |  | remaining activity at 200 µM (EMSA): 87% |
| Cc1ccc(C)c(Oc2c[nH]nc2-c2ccc(OCc3ccc4ccccc4c3)cc2O)c1 [compound 0196290] | 92 |  |
| Oc1cc(OCc2ccc(Cl)cc2)ccc1-c1n[nH]cc1Oc1ccc(Cl)cc1 [compound 0196303] | 72 |  |
| Oc1ccccc1C1=NNC(c2ccccc2)C1 (centres unmarked) [compound 0200685] | 103 | remaining activity at 50 µM (EMSA): 102% |
| Cc1cc(C)c(-c2cn(C)nc2-c2ccc(OCc3ccc(Cl)cc3)cc2O)c(C)c1 [compound 0198360] | 101 |  |
| CCc1ccc(Oc2c(-c3ccc(Nc4ccc(Cl)cc4)cc3O)n[nH]c2C(F)(F)F)cc1 [compound 0200680] | 40 | remaining activity at 50 µM (EMSA): 96% |
| Cn1cc(-c2cn(C)nc2-c2ccc(OCc3ccc(Cl)cc3)cc2O)cn1 [compound 0198362] | 109 |  |
| CCc1ccc(Oc2c(-c3ccc(OCc4cccc(OC)c4)cc3O)nn(C)c2C(F)(F)F)cc1 [compound 0196298] | 98 |  |
| Cn1nc(-c2ccc(OCc3ccc(Cl)cc3)cc2O)c(-c2cc(C(F)(F)F)cc(C(F)(F)F)c2)c1C(F)(F)F [compound 0196360] | 100 |  |

Continued, in another order:

| remaining activity at 100 µM (EMSA, 100 uM test compound) [%] | SMILES | further results |
| --- | --- | --- |
| 72 | N#Cc1cccc(-c2c(C(F)(F)F)n[nH]c2-c2cc(OCc3ccc(Cl)cc3)ccc2O)c1 [compound 0200571] | remaining activity at 50 µM (EMSA): 87% |
| 71 | COc1ccc(-c2c(-c3ccc(OCc4ccc(Cl)cc4)cc3O)noc2C(F)(F)F)cc1OC [compound 0196306] |  |
| 94 | COc1ccc(-c2c(-c3ccc(OCc4ccc(Cl)cc4)cc3O)nn(C)c2C(F)(F)F)cc1OC [compound 0196311] |  |
| 104 | COc1cccc(-c2c(-c3ccc(OCc4ccc(Cl)cc4)cc3O)nn(C)c2C)c1 [compound 0198314] |  |
| 3 | Oc1ccc(OCc2ccc(Cl)cc2)cc1-c1[nH]nc(C(F)(F)F)c1-c1ccccc1Cl [compound 0200576] |  |
| 91 | Oc1cc(OCc2ccc(Cl)cc2)ccc1-c1cc(C(F)(F)F)nc(-c2ccc(F)cc2)n1 [compound 0200503] | remaining activity at 50 µM (EMSA): 89% |
| 97 | Cn1nc(-c2ccc(OCc3ccc(Cl)cc3)cc2O)c(-c2ccc(Cl)c(C(F)(F)F)c2)c1C(F)(F)F [compound 0200733] |  |
| 69 | Cn1nc(C(F)(F)F)c(-c2ccc(C(N)=O)cc2)c1-c1ccc(OCc2ccc(Cl)cc2)cc1O [compound 0198409] |  |
| 105 | CCc1[nH]nc(-c2ccc(OCc3ccc(Cl)cc3)cc2O)c1-c1cccc(OC)c1 [compound 0198315] |  |
| 16 | Cc1ccc(-c2c(-c3ccc(OCc4ccc(Cl)cc4)cc3O)n[nH]c2C(F)(F)F)cc1 [compound 0196344] |  |
| 0 | Oc1cc(OCc2ccc(Cl)cc2)ccc1-c1n[nH]c(C(F)(F)F)c1-c1ccccc1 [compound 0198295] |  |
| 105 | COc1cccc(-c2c(-c3ccc(OCc4ccc(Cl)cc4)cc3O)nn(C)c2C(F)(F)F)c1 [compound 0198311] |  |
| 100 | FC(F)(F)c1cc2n(n1)-c1ccccc1Oc1cc(OCc3ccc(Cl)cc3)ccc1-2 [compound 0200577] |  |
| 18 | Oc1cc(OCc2ccc(Cl)cc2)ccc1-c1n[nH]cc1-c1cccc(Cl)c1 [compound 0196350] |  |
| 77 | Oc1cc(OCc2ccc(Cl)cc2)ccc1-c1n[nH]c(C(F)(F)F)c1-c1cccc(C(F)(F)F)c1 [compound 0200730] | remaining activity at 50 µM (EMSA): 93% |
| 96 | Cn1cc(-c2cc(C(F)(F)F)cc(C(F)(F)F)c2)c(-c2ccc(OCc3ccc(Cl)cc3)cc2O)n1 [compound 0198319] |  |
| 70 | Oc1cc(OCc2ccc(Cl)cc2)ccc1-c1n[nH]cc1-c1ccccc1 [compound 0198293] |  |
| 94 | Cc1c(-c2ccccc2)c(-c2ccc(OCc3ccc(Cl)cc3)cc2O)nn1C [compound 0198300] |  |
| 82 | CN/N=C(\C)c1ccc(-c2c(-c3ccc(OCc4ccc(Cl)cc4)cc3O)nn(C)c2C(F)(F)F)cc1 [compound 0198397] |  |
| 99 | Oc1cc(OCc2ccc(Cl)cc2)ccc1-c1n[nH]c(C(F)(F)F)c1Cc1ccccc1Cl [compound 0200490] | remaining activity at 50 µM (EMSA): 97% |
| 73 | CCc1ccc(Oc2c(-c3ccc(OCc4cccc(Cl)c4)cc3O)nn(C)c2C(F)(F)F)cc1 [compound 0196296] |  |
| 32 | Oc1cc(OCc2ccc(Cl)cc2)ccc1-c1n[nH]cc1-c1cc(C(F)(F)F)cc(C(F)(F)F)c1 [compound 0198318] |  |
| 30 | NC(=O)c1ccc(-c2c(-c3ccc(OCc4ccc(Cl)cc4)cc3O)n[nH]c2C(F)(F)F)cc1 [compound 0198394] |  |
| 5 | Oc1cc(OCc2ccc(Cl)cc2)ccc1-c1n[nH]c(C(F)(F)F)c1-c1ccccc1Cl [compound 0196363] |  |
| 62 | Cn1nc(-c2ccc(OCc3ccc(Cl)cc3)cc2O)c(-c2cccc(C(F)(F)F)c2)c1C(F)(F)F [compound 0200731] | remaining activity at 50 µM (EMSA): 77% |
| 12 | CCc1ccc(Oc2c(-c3ccc(OCc4cccc(Cl)c4)cc3O)n[nH]c2C(F)(F)F)cc1 [compound 0196295] | IC50: 66 µM |
| 136 | Cn1nc(-c2ccc(OCc3ccc(Cl)cc3)cc2O)c(Br)c1C(F)(F)F [compound 0198408] |  |
| 87 | Oc1cc(OCc2ccc(Cl)cc2)ccc1-c1[nH]nc(C(F)(F)F)c1-c1ccc2c(c1)OCCO2 [compound 0200686] | remaining activity at 50 µM (EMSA): 98% |
| 4 | COc1ccc(-c2c(-c3ccc(OCc4ccc(Cl)cc4)cc3O)n[nH]c2C(F)(F)F)cc1OC [compound 0196283] | IC50: 49 µM |
